Test results as given in patent publication US20020137929A1, “1 - (3-heterocyclylphenyl) isothiourea, -isourea, -guanidine and -amidine herbicidal agents” (Intellectual Property Department, BASF Aktiengesellschaft, priority 1998, published 2002).

Assays:
[1] = system: TRZAWR (Wheat, Winter, cv Riband); assay: Postemergence herbicidal evaluation; assay type: in vivo, Triticum aestivum; details: postemergence
Summary of the method: (§1)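 Seedlings grown about two weeks were sprayed at 40 psi with compound dispersed in 50/50 acetone/water plus 0.5% TWEEN 20, at about 0.0156 to 0.500 kg/ha. Plants were kept in the greenhouse and scored 4–5 weeks later on a 0–9 visual scale against untreated controls.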

AMBEL (Ragweed, Common) = assay: Postemergence herbicidal evaluation; assay type: in vivo, Ambrosia artemisifolia; details: postemergence
Summary of the method: as §1

[2] = system: SAGPY (Arrowhead (Pygmaea)); assay: Preemergence weed control under flooded paddy conditions; assay type: in vivo, Sagittaria pygmaea; details: rated 3-4 weeks after treatment
Summary of the method: (§2)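 Greenhouse paddy assay. Acetone/water (50/50 v/v) solutions dosed into flood water, equivalent to about 0.0313 to 0.500 kg/ha active ingredient, over seeds planted 0.5 cm deep in silt loam. Score: 0-9 visual, based on stand, vigor, malformation, size and chlorosis, 3 to 4 weeks after treatment.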

[3] = system: ECHORC (Watergrass (Calif.)); assay: Postemergence weed control under flooded paddy conditions; assay type: in vivo, Echinochloa oryzoides; details: postemergence weeds, rated 3 to 4 weeks after treatment
Summary of the method: (§3)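 Herbicidal effect is judged by eye on a 0–9 scale versus control, 3–4 weeks after dosing. Dosing is into flood water kept 1.5–3 cm over the soil, at about 0.0313–0.500 kg/ha in aqueous/acetone 50/50 v/v, on 3–5 cm weeds and 1.5–2.5-leaf rice seedlings.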

CASOB (Sicklepod) = assay: Postemergence herbicidal evaluation; assay type: in vivo, Cassia obtusifolia; details: postemergence
Summary of the method: as §1

CYPSE (Flatsedge) = assay: Preemergence weed control under flooded paddy conditions; assay type: in vivo, Cyperus serotinus; details: rated 3-4 weeks after treatment
Summary of the method: as §2

GALAP (Galium) [4] = assay: Postemergence herbicidal evaluation; assay type: in vivo, Galium aparine; details: postemergence
Summary of the method: as §1

MOOVA (Monochoria) = assay: Preemergence weed control under flooded paddy conditions; assay type: in vivo, Monochoria vaginalis; details: rated 3-4 weeks after treatment
Summary of the method: as §2

SETVI (Foxtail, Green) = assay: Preemergence herbicidal evaluation; assay type: in vivo, Setaria viridis; details: preemergence, rated 4-5 weeks after treatment, 0-9 scale
Summary of the method: (§4)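 Steps: mix seeds into potting soil; plant atop ~1 inch soil; spray compound in aqueous acetone (~0.0156-0.500 kg/ha equivalent); maintain in greenhouse with watering; rate visually 0-9 versus control at 4-5 weeks.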

[5] = system: SAGPY (Arrowhead (Pygmaea)); assay: Postemergence weed control under flooded paddy conditions; assay type: in vivo, Sagittaria pygmaea; details: postemergence weeds, rated 3 to 4 weeks after treatment
Summary of the method: as §3

GALAP (Galium) [6] = assay: Preemergence herbicidal evaluation; assay type: in vivo, Galium aparine; details: preemergence, rated 4-5 weeks after treatment, 0-9 scale
Summary of the method: as §4

[7] = system: ECHORC (Watergrass (Calif.)); assay: Preemergence weed control under flooded paddy conditions; assay type: in vivo, Echinochloa oryzoides; details: rated 3-4 weeks after treatment
Summary of the method: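 Herbicidal effect is scored visually on a 0-9 scale against an untreated control, three to four weeks after compounds are pipetted into the flood water (1.5 to 3 cm deep) over seeds planted in silt loam at 0.5 cm depth. Rates: about 0.0313 to 0.500 kg/ha.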

ORYSAT (Rice, Tebonnet) = assay: Preemergence herbicidal evaluation; assay type: in vivo, Oryza sativa, (L.) Tebonnet; details: preemergence, rated 4-5 weeks after treatment, 0-9 scale
Summary of the method: as §4

[8] = system: GLXMAW (Soybean, Williams); assay: Postemergence herbicidal evaluation; assay type: in vivo, Glycine max, (L.) Merr. cv Williams; details: postemergence
Summary of the method: as §1

## COC(=O)CC1SC(=Nc2cc(-n3c(=O)cc(C(F)(F)F)n(C)c3=O)c(F)cc2Cl)N(C)C1=O (stereo not drawn) [Compound 88, Methyl 2-{{2-chloro-5-[3,6-dihydro-3-methyl-2,6-dioxo-4-(trifluoromethyl)-1(2H)-pyrimidinyl]-4-fluorophenyl}imino}-3-methyl-4-oxo-5-thiazolidineacetate]
[1]; rate 0.0158 kg/ha
  TRZAWR herbicidal rating: 5.5
[1]; rate 0.0315 kg/ha
  TRZAWR herbicidal rating: 7.0
[1]; rate 0.0630 kg/ha
  TRZAWR herbicidal rating: 7.5
AMBEL (Ragweed, Common); rate 0.0158 kg/ha
  AMBEL herbicidal rating: 9.0
AMBEL (Ragweed, Common); rate 0.0315 kg/ha
  AMBEL herbicidal rating: 9.0
AMBEL (Ragweed, Common); rate 0.0630 kg/ha
  AMBEL herbicidal rating: 9.0
[2]; 0.0313 kg/ha
  SAGPY herbicidal effect rating: 6.0
[2]; 0.0625 kg/ha
  SAGPY herbicidal effect rating: 9.0
[2]; 0.1250 kg/ha
  SAGPY herbicidal effect rating: 9.0
[2]; 0.2500 kg/ha
  SAGPY herbicidal effect rating: 9.0
[3]; Rate 0.0313 kg/ha
  Herbicidal rating ECHORC: 6.0
[3]; Rate 0.0625 kg/ha
  Herbicidal rating ECHORC: 6.0
[3]; Rate 0.1250 kg/ha
  Herbicidal rating ECHORC: 6.0
[3]; Rate 0.2500 kg/ha
  Herbicidal rating ECHORC: 7.0
CASOB (Sicklepod); rate 0.0158 kg/ha
  CASOB herbicidal rating: 0.0
CASOB (Sicklepod); rate 0.0315 kg/ha
  CASOB herbicidal rating: 3.0
CASOB (Sicklepod); rate 0.0630 kg/ha
  CASOB herbicidal rating: 3.0
CYPSE (Flatsedge); 0.0313 kg/ha
  CYPSE herbicidal effect rating: 3.0
CYPSE (Flatsedge); 0.0625 kg/ha
  CYPSE herbicidal effect rating: 5.0
CYPSE (Flatsedge); 0.1250 kg/ha
  CYPSE herbicidal effect rating: 7.0
CYPSE (Flatsedge); 0.2500 kg/ha
  CYPSE herbicidal effect rating: 7.0
GALAP (Galium) [4]; rate 0.0158 kg/ha
  GALAP herbicidal rating: 4.0
GALAP (Galium) [4]; rate 0.0315 kg/ha
  GALAP herbicidal rating: 4.0
GALAP (Galium) [4]; rate 0.0630 kg/ha
  GALAP herbicidal rating: 4.0
MOOVA (Monochoria); 0.0313 kg/ha
  MOOVA herbicidal effect rating: 9.0
MOOVA (Monochoria); 0.0625 kg/ha
  MOOVA herbicidal effect rating: 9.0
MOOVA (Monochoria); 0.1250 kg/ha
  MOOVA herbicidal effect rating: 9.0
MOOVA (Monochoria); 0.2500 kg/ha
  MOOVA herbicidal effect rating: 9.0
SETVI (Foxtail, Green); 0.0156 kg/ha
  SETVI rating: 0.0
SETVI (Foxtail, Green); 0.0313 kg/ha
  SETVI rating: 0.0
SETVI (Foxtail, Green); 0.0625 kg/ha
  SETVI rating: 3.0
SETVI (Foxtail, Green); 0.1250 kg/ha
  SETVI rating: 7.0
SETVI (Foxtail, Green); 0.2500 kg/ha
  SETVI rating: 9.0
[5]; Rate 0.0313 kg/ha
  Herbicidal rating SAGPY: 6.0
[5]; Rate 0.0625 kg/ha
  Herbicidal rating SAGPY: 9.0
[5]; Rate 0.1250 kg/ha
  Herbicidal rating SAGPY: 9.0
[5]; Rate 0.2500 kg/ha
  Herbicidal rating SAGPY: 9.0
GALAP (Galium) [6]; 0.0156 kg/ha
  GALAP rating: 0.0
GALAP (Galium) [6]; 0.0313 kg/ha
  GALAP rating: 0.0
GALAP (Galium) [6]; 0.0625 kg/ha
  GALAP rating: 3.0
GALAP (Galium) [6]; 0.1250 kg/ha
  GALAP rating: 3.0
GALAP (Galium) [6]; 0.2500 kg/ha
  GALAP rating: 9.0
[7]; 0.0313 kg/ha
  ECHORC herbicidal effect rating: 6.0
[7]; 0.0625 kg/ha
  ECHORC herbicidal effect rating: 6.0
[7]; 0.1250 kg/ha
  ECHORC herbicidal effect rating: 6.0
[7]; 0.2500 kg/ha
  ECHORC herbicidal effect rating: 7.0
ORYSAT (Rice, Tebonnet); 0.0156 kg/ha
  ORYSAT rating: 0.0
ORYSAT (Rice, Tebonnet); 0.0313 kg/ha
  ORYSAT rating: 0.0
ORYSAT (Rice, Tebonnet); 0.0625 kg/ha
  ORYSAT rating: 0.0
ORYSAT (Rice, Tebonnet); 0.1250 kg/ha
  ORYSAT rating: 2.0
ORYSAT (Rice, Tebonnet); 0.2500 kg/ha
  ORYSAT rating: 7.0
[8]; rate 0.0158 kg/ha
  GLXMAW herbicidal rating: 8.5
[8]; rate 0.0315 kg/ha
  GLXMAW herbicidal rating: 8.5
[8]; rate 0.0630 kg/ha
  GLXMAW herbicidal rating: 9.0

## CN1C(=O)C(CC(N)=O)SC1=Nc1cc(-n2c(=O)cc(C(F)(F)F)n(C)c2=O)c(F)cc1Cl (stereo not drawn) [Compound 92, 2-{{2-Chloro-5-[3,6-dihydro-3-methyl-2,6-dioxo-4-(trifluoromethyl)-1(2H)-pyrimidinyl]-4-fluorophenyl}imino}-3-methyl-4-oxo-5-thiazolidineacetamide]
[1]; rate 0.0158 kg/ha
  TRZAWR herbicidal rating: 5.0
[1]; rate 0.0315 kg/ha
  TRZAWR herbicidal rating: 6.0
[1]; rate 0.0630 kg/ha
  TRZAWR herbicidal rating: 6.5
AMBEL (Ragweed, Common); rate 0.0158 kg/ha
  AMBEL herbicidal rating: 0.0
AMBEL (Ragweed, Common); rate 0.0315 kg/ha
  AMBEL herbicidal rating: 9.0
AMBEL (Ragweed, Common); rate 0.0630 kg/ha
  AMBEL herbicidal rating: 9.0
[2]; 0.0313 kg/ha
  SAGPY herbicidal effect rating: 0.0
[2]; 0.0625 kg/ha
  SAGPY herbicidal effect rating: 0.0
[2]; 0.1250 kg/ha
  SAGPY herbicidal effect rating: 4.0
[2]; 0.2500 kg/ha
  SAGPY herbicidal effect rating: 9.0
[3]; Rate 0.0313 kg/ha
  Herbicidal rating ECHORC: 0.0
[3]; Rate 0.0625 kg/ha
  Herbicidal rating ECHORC: 0.0
[3]; Rate 0.1250 kg/ha
  Herbicidal rating ECHORC: 2.0
[3]; Rate 0.2500 kg/ha
  Herbicidal rating ECHORC: 3.0
CASOB (Sicklepod); rate 0.0158 kg/ha
  CASOB herbicidal rating: 3.0
CASOB (Sicklepod); rate 0.0315 kg/ha
  CASOB herbicidal rating: 5.0
CASOB (Sicklepod); rate 0.0630 kg/ha
  CASOB herbicidal rating: 9.0
CYPSE (Flatsedge); 0.0313 kg/ha
  CYPSE herbicidal effect rating: 9.0
CYPSE (Flatsedge); 0.0625 kg/ha
  CYPSE herbicidal effect rating: 9.0
CYPSE (Flatsedge); 0.1250 kg/ha
  CYPSE herbicidal effect rating: 9.0
CYPSE (Flatsedge); 0.2500 kg/ha
  CYPSE herbicidal effect rating: 9.0
GALAP (Galium) [4]; rate 0.0158 kg/ha
  GALAP herbicidal rating: 0.0
GALAP (Galium) [4]; rate 0.0315 kg/ha
  GALAP herbicidal rating: 3.0
GALAP (Galium) [4]; rate 0.0630 kg/ha
  GALAP herbicidal rating: 4.0
MOOVA (Monochoria); 0.0313 kg/ha
  MOOVA herbicidal effect rating: 9.0
MOOVA (Monochoria); 0.0625 kg/ha
  MOOVA herbicidal effect rating: 9.0
MOOVA (Monochoria); 0.1250 kg/ha
  MOOVA herbicidal effect rating: 9.0
MOOVA (Monochoria); 0.2500 kg/ha
  MOOVA herbicidal effect rating: 9.0
SETVI (Foxtail, Green); 0.0156 kg/ha
  SETVI rating: 0.0
SETVI (Foxtail, Green); 0.0313 kg/ha
  SETVI rating: 0.0
SETVI (Foxtail, Green); 0.0625 kg/ha
  SETVI rating: 0.0
SETVI (Foxtail, Green); 0.1250 kg/ha
  SETVI rating: 0.0
SETVI (Foxtail, Green); 0.2500 kg/ha
  SETVI rating: 9.0
[5]; Rate 0.0313 kg/ha
  Herbicidal rating SAGPY: 0.0
[5]; Rate 0.0625 kg/ha
  Herbicidal rating SAGPY: 0.0
[5]; Rate 0.1250 kg/ha
  Herbicidal rating SAGPY: 4.0
[5]; Rate 0.2500 kg/ha
  Herbicidal rating SAGPY: 9.0
GALAP (Galium) [6]; 0.0156 kg/ha
  GALAP rating: 0.0
GALAP (Galium) [6]; 0.0313 kg/ha
  GALAP rating: 0.0
GALAP (Galium) [6]; 0.0625 kg/ha
  GALAP rating: 0.0
GALAP (Galium) [6]; 0.1250 kg/ha
  GALAP rating: 9.0
GALAP (Galium) [6]; 0.2500 kg/ha
  GALAP rating: 9.0
[7]; 0.0313 kg/ha
  ECHORC herbicidal effect rating: 0.0
[7]; 0.0625 kg/ha
  ECHORC herbicidal effect rating: 0.0
[7]; 0.1250 kg/ha
  ECHORC herbicidal effect rating: 2.0
[7]; 0.2500 kg/ha
  ECHORC herbicidal effect rating: 3.0
ORYSAT (Rice, Tebonnet); 0.0156 kg/ha
  ORYSAT rating: 0.0
ORYSAT (Rice, Tebonnet); 0.0313 kg/ha
  ORYSAT rating: 0.0
ORYSAT (Rice, Tebonnet); 0.0625 kg/ha
  ORYSAT rating: 0.0
ORYSAT (Rice, Tebonnet); 0.1250 kg/ha
  ORYSAT rating: 0.0
ORYSAT (Rice, Tebonnet); 0.2500 kg/ha
  ORYSAT rating: 5.0
[8]; rate 0.0158 kg/ha
  GLXMAW herbicidal rating: 7.5
[8]; rate 0.0315 kg/ha
  GLXMAW herbicidal rating: 9.0
[8]; rate 0.0630 kg/ha
  GLXMAW herbicidal rating: 9.0
